Test results reported in publication PMC8286840, “Identifying SARS-CoV-2 antiviral compounds by screening for small molecule inhibitors of Nsp3 papain-like protease” (Biochemical Journal, 2021).
Structures can show the parent of a compound that is named as a salt. Where two headings read alike, the source gives them in different places.

What was measured:
[1] = target: T1, SARS-CoV-2 PLpro (nsp3 1564–1878) (Severe acute respiratory syndrome coronavirus 2, UniProt P0DTD1); assay: biochemical; set-up: FRET-quenched peptide (Pro3) cleavage by PLpro, 10 min pre-incubation, slope over 20 min, normalised to no-compound control; settings: high concentration screen, read-out: % of control remaining
[2] = target: T1, SARS-CoV-2 PLpro (nsp3 1564–1878); assay: biochemical; set-up: FRET-quenched peptide (Pro3) cleavage by PLpro, 10 min pre-incubation, slope over 20 min, normalised to no-compound control; settings: low concentration screen, read-out: % of control remaining

CCCCCCCCCCCCC(=O)N1CCCCC1CNC(=O)[C@@H](N)CCCCN (stereo partly drawn) [NPC-15437 dihydrochloride]
remaining activity at 3.75 µM ([1]; Well no.=1132): 95.6%
remaining activity at 1.25 µM ([2]; Well no.=1132): 94%

CC(C)(Cc1ccc2ccccc2c1)NC[C@@H](O)COc1cccc(Cl)c1C#N [NPS-2143 (hydrochloride)]
remaining activity at 3.75 µM ([1]; Well no.=7051): 105%
remaining activity at 1.25 µM ([2]; Well no.=7051): 107%

CC(C)(Cc1ccc2ccccc2c1)NC[C@@H](O)COc1cccc(Cl)c1C#N [NPS-2143]
remaining activity at 3.75 µM ([1]; Well no.=7036): 93.8%
remaining activity at 1.25 µM ([2]; Well no.=7036): 96.4%

CC(=O)c1ccc(NC2=C(Cl)C(=O)c3ccccc3C2=O)cc1 [NQ301]
remaining activity at 3.75 µM ([1]; Well no.=5652): 82.1%
remaining activity at 1.25 µM ([2]; Well no.=5652): 93.7%

CCOC(=O)c1c2c3c(cccc3[nH]c1=O)C(=O)c1ccccc1-2 [NQDI-1]
remaining activity at 3.75 µM ([1]; Well no.=5480): 96.7%
remaining activity at 1.25 µM ([2]; Well no.=5480): 90.1%

CCCCN1CCC(n2c(=O)[nH]c3ccccc32)CC1 [NS 521 oxalate]
remaining activity at 3.75 µM ([1]; Well no.=1003): 105%
remaining activity at 1.25 µM ([2]; Well no.=1003): 99.3%

O=c1onc2n1-c1cc(Br)ccc1OC2 [NS 2028]
remaining activity at 3.75 µM ([1]; Well no.=990): 99.6%
remaining activity at 1.25 µM ([2]; Well no.=990): 99.8%

CC(C)N(CCCCOCC(=O)NS(C)(=O)=O)c1cnc(-c2ccccc2)c(-c2ccccc2)n1 [NS-304]
remaining activity at 3.75 µM ([1]; Well no.=6795): 94.6%
remaining activity at 1.25 µM ([2]; Well no.=6795): 97.6%

O=c1[nH]c2cc(C(F)(F)F)ccc2n1-c1cc(C(F)(F)F)ccc1O [NS-1619]
remaining activity at 3.75 µM ([1]; Well no.=846): 102%
remaining activity at 1.25 µM ([2]; Well no.=846): 104%

CN1CCN(C(=O)/C=C/c2ccc([N+](=O)[O-])o2)CC1 [NSC59984]
remaining activity at 3.75 µM ([1]; Well no.=6644): 106%
remaining activity at 1.25 µM ([2]; Well no.=6644): 105%

C/C(=N\NC(=S)N1CCC1)c1ccccn1 [NSC319726]
remaining activity at 3.75 µM ([1]; Well no.=6736): 102%
remaining activity at 1.25 µM ([2]; Well no.=6736): 102%

Cc1ccc2nc(CN(CCN(Cc3nc4ccc(C)cc4[nH]3)Cc3nc4ccc(C)cc4[nH]3)Cc3nc4ccc(C)cc4[nH]3)[nH]c2c1 [NSC348884]
remaining activity at 3.75 µM ([1]; Well no.=6442): 98.1%
remaining activity at 1.25 µM ([2]; Well no.=6442): 105%

CC(C)(N)C(=O)O [NSC 16590]
remaining activity at 3.75 µM ([1]; Well no.=7781): 108%
remaining activity at 1.25 µM ([2]; Well no.=7781): 103%

CCN(CC)CCCC(C)Nc1nc(C)cc(Nc2ccc3nc(C)cc(N)c3c2)n1 (stereo not drawn) [NSC 23766]
remaining activity at 3.75 µM ([1]; Well no.=4798): 101%
remaining activity at 1.25 µM ([2]; Well no.=4798): 103%

CC(=O)N[C@@H](Cc1ccccc1)C(=O)O [NSC 45699]
remaining activity at 3.75 µM ([1]; Well no.=8710): 106%
remaining activity at 1.25 µM ([2]; Well no.=8710): 107%

O=C1C(SCCO)=C(SCCO)C(=O)c2ccccc21 [NSC 95397]
remaining activity at 3.75 µM ([1]; Well no.=5678): 75.9%
remaining activity at 1.25 µM ([2]; Well no.=5678): 92%

CN1CCN(c2ccc([N+](=O)[O-])c3no[n+]([O-])c23)CC1 [NSC-207895 (XI-006)]
remaining activity at 3.75 µM ([1]; Well no.=4647): 95.2%
remaining activity at 1.25 µM ([2]; Well no.=4647): 101%

O=c1cc(N2CCOCC2)oc2c(-c3cccc4c3sc3ccccc34)cccc12 [NU7441 (KU-57788)]
remaining activity at 3.75 µM ([1]; Well no.=4926): 94.3%
remaining activity at 1.25 µM ([2]; Well no.=4926): 99.2%

O=c1cc(N2CCOCC2)oc2c1ccc1ccccc12 [NU 7026 - 2-(4-Morpholinyl)-4H-naphthol[1,2-b]pyran-4-one]
remaining activity at 3.75 µM ([1]; Well no.=2630): 92.6%
remaining activity at 1.25 µM ([2]; Well no.=2630): 92.2%

O=C(Nc1nc2ccc(NC(=O)C34C[C@H]5C[C@@H](C3)C[C@@H](C4)C5)cc2s1)c1ccccc1 [NVP-231]
remaining activity at 3.75 µM ([1]; Well no.=5410): 86.5%
remaining activity at 1.25 µM ([2]; Well no.=5410): 95.2%

CCNC(=O)c1cc2c(-c3cc(OCCN4CCCC4)c(Cl)cc3Cl)nc(N)nc2s1 [NVP-BEP800]
remaining activity at 3.75 µM ([1]; Well no.=4917): 95.1%
remaining activity at 1.25 µM ([2]; Well no.=4917): 93.5%

COc1ccc(-c2ccc3ncc4c(c3c2)n(-c2ccc(N3CCNCC3)c(C(F)(F)F)c2)c(=O)n4C)cn1 [NVP-BGT226]
remaining activity at 3.75 µM ([1]; Well no.=4701): 97.1%
remaining activity at 1.25 µM ([2]; Well no.=4701): 99%

Cc1ccc(C(=O)Nc2cccc(C(F)(F)F)c2)cc1Nc1nc(-c2cccnc2)nc2c1cnn2C [NVP-BHG712]
remaining activity at 3.75 µM ([1]; Well no.=4820): 96.9%
remaining activity at 1.25 µM ([2]; Well no.=4820): 100%

Cn1cc(-c2ccc3ncc(Cc4ccc5ncccc5c4)n3n2)cn1 [NVP-BVU972]
remaining activity at 3.75 µM ([1]; Well no.=4930): 92.3%
remaining activity at 1.25 µM ([2]; Well no.=4930): 98.1%

COc1cc2c(cc1OC(C)C)[C@H](c1ccc(Cl)cc1)N(c1ccc(N(C)C[C@H]3CC[C@H](N4CCN(C)C(=O)C4)CC3)cc1)C(=O)C2 [NVP-CGM097 (sulfate)]
remaining activity at 3.75 µM ([1]; Well no.=6878): 89.6%
remaining activity at 1.25 µM ([2]; Well no.=6878): 95.2%

COc1cc2c(cc1OC(C)C)[C@H](c1ccc(Cl)cc1)N(c1ccc(N(C)C[C@H]3CC[C@H](N4CCN(C)C(=O)C4)CC3)cc1)C(=O)C2 [NVP-CGM097]
remaining activity at 3.75 µM ([1]; Well no.=6974): 94.5%
remaining activity at 1.25 µM ([2]; Well no.=6974): 95.7%

CNC(=O)c1ccccc1Nc1nc(Nc2ccc(N3CCOCC3)cc2OC)ncc1Cl [NVP-TAE226]
remaining activity at 3.75 µM ([1]; Well no.=4789): 105%
remaining activity at 1.25 µM ([2]; Well no.=4789): 103%

CN(C)C(N)=NCCC[C@H](N)C(=O)O [N^G,N^G-Dimethylarginine hydrochloride]
remaining activity at 3.75 µM ([1]; Well no.=689): 97%
remaining activity at 1.25 µM ([2]; Well no.=689): 97%

COc1ccc2cc(CCC(C)=O)ccc2c1 [Nabumetone]
remaining activity at 3.75 µM ([1]; Well no.=2005): 101%
remaining activity at 1.25 µM ([2]; Well no.=2005): 102%

CC1CCc2c(N3CCC(O)CC3)c(F)cc3c(=O)c(C(=O)O)cn1c23 (stereo not drawn) [Nadifloxacin]
remaining activity at 3.75 µM ([1]; Well no.=2003): 94.8%
remaining activity at 1.25 µM ([2]; Well no.=2003): 96.2%

N=C(N)Nc1ccc(C(=O)Oc2ccc3cc(C(=N)N)ccc3c2)cc1 [Nafamostat mesylate]
remaining activity at 3.75 µM ([1]; Well no.=4809): 104%
remaining activity at 1.25 µM ([2]; Well no.=4809): 104%

CCOc1ccc2ccccc2c1C(=O)N[C@@H]1C(=O)N2[C@@H]1SC(C)(C)[C@@H]2C(=O)O [Nafcillin (sodium monohydrate)]
remaining activity at 3.75 µM ([1]; Well no.=8660): 98.1%
remaining activity at 1.25 µM ([2]; Well no.=8660): 99%

CCOc1ccc2ccccc2c1C(=O)N[C@@H]1C(=O)N2[C@@H]1SC(C)(C)[C@@H]2C(=O)O [Nafcillin Sodium]
remaining activity at 3.75 µM ([1]; Well no.=4690): 101%
remaining activity at 1.25 µM ([2]; Well no.=4690): 104%

CCN(CC)CCOC(=O)C(Cc1cccc2ccccc12)CC1CCCO1 (stereo not drawn) [Naftidrofuryl (oxalate)]
remaining activity at 3.75 µM ([1]; Well no.=7050): 93.7%
remaining activity at 1.25 µM ([2]; Well no.=7050): 98%

CN(C/C=C/c1ccccc1)Cc1cccc2ccccc12 [Naftifine HCl]
remaining activity at 3.75 µM ([1]; Well no.=4983): 96.2%
remaining activity at 1.25 µM ([2]; Well no.=4983): 96.8%

COc1ccccc1N1CCN(CC(O)COc2cccc3ccccc23)CC1 (stereo not drawn) [Naftopidil dihydrochloride]
remaining activity at 3.75 µM ([1]; Well no.=1084): 95.6%
remaining activity at 1.25 µM ([2]; Well no.=1084): 96.1%
